The subject of test [1] is epimastigotes of T. cruzi (Tulahuen 2 strain). Also noted: method as in PMID 25512408. To be noted: reference trypanosomicidal drugs; read-out: IC50 against epimastigotes of T. cruzi (reference drugs); cited from earlier work.
The target in test [2] is T1, Trypanosoma cruzi triosephosphate isomerase (TcTIM) (Trypanosoma cruzi, UniProt P52270).
T1 construct: made in house; host or cells: Escherichia coli
Put plainly: Inhibition of enzymatic activity of TcTIM. Type of test: biochemical. The following applies: for inhibition at 25 µM: percentage of enzymatic inhibition at 25 μM, read-out: TcTIM % Inhib25; for inhibition at 200 µM: percentage of enzymatic inhibition at 200 μM, read-out: TcTIM % Inhib200. The procedure: In order to investigate if the 3H-[1,2]dithioles inhibit TcTIM, we initially tested the inhibitory capacity of the compounds at a concentration of 200 μM and then at 25 μM.
Expression and purification of protein: TcTIM was expressed in Escherichia coli and purified as described in the literature. After purification, the enzyme, dissolved in 100 mM triethanolamine, 10 mM EDTA and 1 mM dithiothreitol (pH 8), was precipitated with ammonium sulfate (75% saturation) and stored at 4 °C. Before use, extensive dialysis against 100 mM triethanolamine/10 mM EDTA (pH 7.4) was performed. Protein concentration was determined by absorbance at 280 nm (ε = 36,440 M^−1·cm^−1).
Enzymatic activity assays. Enzymatic activity was determined following the conversion of glyceraldehyde 3-phosphate into dihydroxyacetone phosphate. The decrease in absorbance at 340 nm was followed in a multicell Cary spectrophotometer at 25 °C. The reaction mixture (1 mL, pH 7.4) contained 100 mM triethanolamine, 10 mM EDTA, 0.2 mM NADH, 1 mM glyceraldehyde 3-phosphate, and 0.9 units of α-glycerol phosphate dehydrogenase. The reaction was initiated by addition of 5 ng/mL of the TcTIM.
For inactivation studies, TcTIM was incubated at a concentration of 5 mg/mL in a buffer containing 100 mM triethanolamine, 10 mM EDTA, pH 7.4 and 10% of DMSO at 36 °C. The mixture also contained the compounds at the indicated concentrations. Compounds were dissolved in DMSO. After 2 h, […] was withdrawn and added to 1 mL of reaction mixture for the activity assay. None of the molecules tested here affected the activity of α-glycerol phosphate dehydrogenase, the enzyme used for trapping the product.
The IC50 value was taken as the concentration of drug needed to reduce the enzymatic activity to 50%. The experiments were performed in triplicate.

For test [3], the system named is J774.1 murine macrophages. In words: Unspecific in vitro cytotoxicity of mammalian cells (MTT). Type of test: cell-based. To be noted: Mus musculus, 48 h exposure, read-out: IC50 against Macrophages. The procedure:
(§1) To evaluate the anti-trypanosomal activity of the synthesized 3H-[1,2]dithioles we used T. cruzi, Tulahuen 2 strain (discrete typing unit, DTU, TcVI [18]) in the epimastigote form. […] To establish the selectivity of the compounds against the parasite, unspecific cytotoxicity against mammalian cells (J774.1 murine macrophages) was studied for the most relevant derivatives. The selectivity indexes (SI) were also determined (Table 1).
J774.1 murine macrophage cells (ATCC, Manassas, VA, USA) were grown in DMEM culture milieu containing 4 mM L-glutamine and supplemented with 10% heat-inactivated fetal calf serum. […] Afterwards, cells were exposed for 48 h to the compounds (25–400 μM) or vehicle for control (0.4% DMSO), and additional controls (cells in medium) were used in each test. Cell viability was then assessed by measuring the mitochondria-dependent reduction of MTT (3-(4,5-dimethylthiazol-2-yl)-2,5-diphenyltetrazolium bromide) to formazan. For this purpose, MTT in sterile PBS (0.2% glucose) pH 7.4 was added to the macrophages to achieve a final concentration of 0.1 mg/mL and the cells were incubated at 37 °C for 3 h. After removing the medium, formazan crystals were dissolved in 180 μL of DMSO and 20 μL of MTT buffer (0.1 M glycine, 0.1 M NaCl, 0.5 mM EDTA, pH 10.5) and the absorbance at 560 nm was measured. The IC50 was defined as the drug concentration at which 50% of the cells were viable, relative to the control (no drug added), and was determined by analysis using OriginLab8.5® sigmoidal regression (% of viable cells vs. logarithm of the compound concentration). Samples were performed in triplicate.

Test [4] concerns T. cruzi cells (Y strain, DTU Tc II). In words: 1H-NMR study of the excreted metabolites. In kind it is cell-based, Trypanosoma cruzi. The procedure: To gain insight into the changes promoted by the active 3-propylidene[1,2]dithioles 2 and 14 in some biochemical pathways, the metabolites excreted by the parasite using ^1H-NMR spectroscopy were analyzed. Changes in the excreted metabolites by T. cruzi Y strain (DTU Tc II, [24]), when the parasite cells were exposed to a bioactive compound, could be indicative of the modification of the biochemical pathway(s) by the agents. Spectra of the cell-free milieu of treated parasites were compared with those of the untreated T. cruzi-free milieu as the control. We focused mainly on the changes of excreted salts of the carboxylic acids, lactate (Lac), acetate (Ace), pyruvate (Pyr), and succinate (Succ) and the amino acids, alanine (Ala) and glycine (Gly), among the most relevant modified metabolites.
For the ^1H-NMR spectroscopic studies, T. cruzi cells (Y strain, DTU Tc II) treated for 2 days, with each studied compound at concentrations corresponding to 2 × IC50 values (5 mL) were centrifuged at 1500× g for 10 min at 4 °C. The pellet was discarded, and the parasite-free supernatant was stored at −20 °C until use. Before measuring, DMF (0.1 mL, 10 mM) as the internal standard and D2O (0.1 mL) were added to the supernatant (0.3 mL). ^1H-NMR experiments were recorded at 20 °C on a Bruker Advance DPX-400 spectrometer (Bruker), operating at 400.132 MHz, with a 5 mm broadband inverse geometry probe. The acquisition parameters included: 90° pulse (zgpr, advance-version v 1.7.10.2, 1D sequence with f1 presaturation), 128 scans, and spectral width of 14.983 ppm. The acquisition time was 1.3664 s. Signal intensities were calculated by performing appropriate baseline corrections and then integrating the area under each of the resonances using MestRe-C NMR software. Spectra were analyzed using the Topspin 1.3 software package. The spectra were registered with water suppression in 5 mm NMR (Aldrich, St. Louis, MO, USA) sample tubes. The chemical displacements used to identify the respective metabolites were previously confirmed by adding each analyzed metabolite to the studied supernatant, as well as by the study of a control solution with 4 μg/mL of each metabolite in buffer (phosphate, pH = 7.4). Each run was done at least in triplicate and the Student t test was used to analyze the significance of the changes. […]

Test [5] addresses T2, cruzipain (Trypanosoma cruzi, UniProt P25779).
T2 construct: endogenous in cells; host or cells: T. cruzi epimastigotes, Tulahuen 2 strain
Put plainly: Inhibition of T. cruzi cruzipain (Z-Phe-Arg-AMC fluorogenic substrate). To be noted: percentage of enzymatic inhibition at 100 μM; read-out: Cruzipain % Inhib100. Type of test: biochemical. The procedure: Initially, we tested the dithioles as inhibitors of the protease cruzipain from T. cruzi at a concentration of 100 μM.
Cruzipain was purified to homogeneity from epimastigotes of the Tulahuen 2 strain by ConA-Sepharose affinity chromatography, as previously described. Cruzipain (2.5 μM ε = 58,285 M^−1·cm^−1) was incubated in 50 mM acetate buffer pH 5.5 with 50 mM DTT and 100 μM inhibitor was added, shaking the solution for 15 min at 27 °C. The derivatives were added diluted in DMSO, and the controls contained the same solvent concentration. The concentration of DMSO never exceeded 1% in the reaction medium. E-64 was used as a positive control of inhibition. Then, the fluorogenic substrate Z-Phe-Arg-AMC (100 μM) was added and the fluorescence was measured during 10 min at intervals of 3 s (excitation at 350 nm and emission at 460 nm) using a Varioskan Flash Spectrophotometer. From the slope of the negative control, we calculated the total (100%) enzyme activity, while the slopes obtained in the presence of the compounds yielded the percentage of remaining enzyme activity. The percentage of enzyme inhibition was determined as […]. The experiments were done in duplicate.

For test [6], the system named is epimastigotes of T. cruzi (Tulahuen 2 strain). In words: Anti-T. cruzi test in vitro (epimastigote growth inhibition). In kind it is cell-based, Trypanosoma cruzi. To be noted: for IC50: Trypanosoma cruzi, epimastigotes, Tulahuen 2 strain, triplicate, read-out: IC50 against T. cruzi. The procedure: as §1
We used epimastigotes of the Tulahuen 2 strain (DTU, Tc VI) growing in an axenic milieu (BHI-Tryptose). Cells from a 5–7-day-old culture were inoculated in fresh culture milieu to give an initial concentration of 1 × 10^6 cells/mL. The absorbance at 600 nm of the cells in culture was measured every day. At day 5, the milieu was inoculated with different quantities of the compounds from a stock solution in DMSO (DMSO concentration in the culture milieu never exceeded 0.4%). The control was made in the presence of 0.4% DMSO and in the absence of compounds. […] At day 5, the absorbance of the culture was measured and related to the control. The IC50 value was taken as the concentration of drug needed to reduce the absorbance ratio to 50%.

The target in test [7] is T2, cruzipain. Put plainly: Inhibition of T. cruzi cruzipain (Z-Phe-Arg-AMC fluorogenic substrate). The following applies: isolated enzyme. Type of test: biochemical.
Test [8] concerns membrane sterol biosynthesis in epimastigotes of Y strain of T. cruzi. Put plainly: Inhibition of membrane sterol biosynthesis (qualitative TLC). To be noted: compounds at their IC50, 72 h, 28 °C, compared to control. In kind it is cell-based, Trypanosoma cruzi. The procedure:
To do so, we analyzed the accumulation or depletion of some intermediates or final products of this biochemical pathway. Qualitative analyses were performed by thin layer chromatography (TLC).
The parasites, epimastigotes of Y strain of T. cruzi (DTU Tc II), were grown in 6 mL of BHT milieu in culture bottles. […] A negative control was performed with parasites in the absence of compounds. […] The extraction of membrane sterols was performed on completion of the incubation. For this purpose, the content of the culture bottle was centrifuged at 3000 rpm for 10 min, the supernatant was discarded and the pellet was suspended in sodium phosphate buffer solution (6 mL, 0.05 M, pH 7.4). Then it was centrifuged again at 3000 rpm for 10 min and the supernatant was discarded. The resulting pellet was resuspended in a chloroform/methanol (2:1) mixture (5 mL) and the suspension was kept at 4 °C for 12 h. Then, a saturated NaCl solution (5 mL) was added and the mixture extracted once with chloroform (3 mL) and once with hexane (3 mL) with care to avoid taking any aqueous phase. The extracted volume was applied to a silica gel TLC plate. Chromatography was performed eluting with hexane, two runs to identify squalene, and once with hexane/EtOAc (8:2) for ergosterol. […] Also, controls and commercial samples of ergosterol, lanosterol, cholesterol and squalene were run on the TLC plate. […]

Test [9] deals with T. cruzi. The following applies: positive control of the sterol study; source not given; read-out: IC50 of terbinafine; cited from earlier work.
Setting [10] is: IC50 × 2, 2 days, DMF internal standard.

Where two headings read alike, the source gives them in different places.

T1 sequence (P52270 whole entry): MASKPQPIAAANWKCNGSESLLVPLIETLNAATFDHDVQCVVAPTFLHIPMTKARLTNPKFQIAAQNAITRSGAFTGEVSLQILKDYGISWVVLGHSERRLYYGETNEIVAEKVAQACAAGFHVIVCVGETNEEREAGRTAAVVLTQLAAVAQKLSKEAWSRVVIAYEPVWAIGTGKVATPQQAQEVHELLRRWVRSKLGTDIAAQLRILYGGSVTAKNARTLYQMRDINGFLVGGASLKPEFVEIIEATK
T2 sequence (P25779 123-467): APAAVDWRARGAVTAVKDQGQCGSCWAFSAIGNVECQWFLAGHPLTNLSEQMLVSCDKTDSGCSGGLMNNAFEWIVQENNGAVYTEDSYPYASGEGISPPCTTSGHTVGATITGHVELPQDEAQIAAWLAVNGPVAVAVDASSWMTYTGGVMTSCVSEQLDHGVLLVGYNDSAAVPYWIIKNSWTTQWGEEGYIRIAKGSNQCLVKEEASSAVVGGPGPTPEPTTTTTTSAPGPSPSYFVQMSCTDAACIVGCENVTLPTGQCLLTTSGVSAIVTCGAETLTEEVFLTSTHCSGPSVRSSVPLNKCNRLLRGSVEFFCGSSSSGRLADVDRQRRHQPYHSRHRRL

In the case of `O=C(Cn1ccnc1[N+](=O)[O-])NCc1ccccc1` [Bnz, benznidazole], the IC50 (commonly the concentration that gives 50% inhibition) in [1] was 7 ± 1 µM.

For the compound `O=C(CS/C(C(=O)c1ccc2ccccc2c1)=C1\C=C(c2ccc(O)cc2)SS1)c1ccc2ccccc2c1` [Derivative 14], in test [2], the inhibition at 25 µM was 38 ± 3.5% and the inhibition at 200 µM was determined as 70%. Further, the IC50 in [3] is 63 ± 2 µM. In test [4] (setting [10]), the “Concentration of excreted Ace” value is listed as 26.41 ± 1.44, the “Concentration of excreted Ala” value is reported as 20.65 ± 1.27, the “Concentration of excreted Gly” value is 2.48 ± 0.14 and the “Concentration of excreted Lac” value turned out to be 10.41 ± 0.58. For the same compound, in test [4] (setting [10]), the “Concentration of excreted Pyr” value is on record as 9.47 ± 0.53 and the “Concentration of excreted Succ” value amounted to 7.34 ± 0.65. In test [4] (IC50 × 2, p < 0.05 Student's t-test), the “Change of excreted metabolites compared to the control” value was “did not modify the excreted catabolites”. Besides, in [5], the inhibition at 100 µM came to 66.5 ± 0.3%. Moreover, the IC50 in test [6] came out at 4.9 ± 1.1 µM.

Consider `COc1ccc(C2=C/C(=C(\SCC(C)=O)C(C)=O)SS2)cc1` [Derivative 15], for which, in test [2], the inhibition at 25 µM came out at 62 ± 3%. Besides, the inhibition at 200 µM in test [2] is 86%. The 50% inhibitory concentration (IC50) in [3] was less than 24 µM; in [7], 15.1 ± 2.5 µM; in test [6] it was 5.9 ± 1.2 µM. In addition, the inhibition at 100 µM in [5] was 85.4 ± 0.2%. In addition, in test [6] (macrophages (J774.1) vs T. cruzi epimastigotes), the “SI (selectivity index)” value is on record as less than 4.1.

Regarding `CC1CS(=O)(=O)CCN1/N=C/c1ccc([N+](=O)[O-])o1` (centres unmarked) [Nfx, nifurtimox], the IC50 in test [1] was 8 ± 1 µM.

Consider `CN(C/C=C/C#CC(C)(C)C)Cc1cccc2ccccc12` [terbinafine, reference compound], for which the “Changes in membrane sterols and intermediates (squalene, ergosterol)” value in test [8] is “accumulate squalene and deplete ergosterol”. Moreover, the IC50 in [9] was 44.7 µM.
